According to patent US20260048051A1, “TREATMENT OF INFLAMMATORY BOWEL DISEASE” (Atomwise Inc., priority 2024, published 2026):

What was measured:
[1] = Log D (octanol / phosphate buffer pH 7.4); type: physicochemical; conditions: for logD at 1 h: octanol/potassium phosphate buffer, pH 7.4, octanol / potassium phosphate buffer pH 7.4
Procedure: 10 μL of 10 mM stock solutions was placed into a 96-well plate, and 300 μL of octanol was subsequently added. The plate was sealed and agitated on a plate shaker for 5 minutes, followed by centrifugation at 2000 rpm for 5 minutes. The seal was removed and 600 μL of potassium phosphate buffer (pH 7.4) was added. The plate was sealed and the two phases were mixed by shaking vigorously on a plate shaker for 1 hour at 25° C. The plate was then centrifuged for 2000 rpm for 5 minutes and the seal was removed. 10 μL of water was aspirated out of the water phase samples from the water phase plate and mixed with 10 μL of water (1:2 dilution). 180 μL of 50% Ethanol was added into the water phase sample plate (1:10 dilution) to achieve a 1:20 dilution. 50 μL of water phase samples were then mixed with 100 μL of 50% Ethanol (containing IS) into the water phase sample plate to achieve a 1:60 dilution. 10 μL from the octanol phase (the upper phase) was transferred into a new 96-well plate and 190 μL of 50% Ethanol was added (1:20 dilution). 10 μL of the 1:20 diluted octanol samples was transferred into a new 96 deep-well plate and 390 μL of 50% Ethanol (1:40 dilution) was added to achieve a 1:800 dilution. 50 μL of the 1:800 diluted octanol samples were transferred into a new 96-well plate and 100 μL of 50% Ethanol with IS was added to achieve a 1:2400 dilution. The samples were subsequently analyzed with LCMS.

Caco-2 permeability = type: in vitro ADME; conditions: human, Caco-2
Procedure: (§1) Caco-2 cells were cultured for 21 days on a Transwell 96-well plate. The basal plate for changing the media was prepared by filling all wells of a 96-well sterile plate with 200 μL of Caco-2 media and placing it into an incubator. The apical section of the plate was lifted and lowered onto an empty basal plate. From the apical compartments containing 115 μL of cell media, 85 μL of the cell culture media was aspirated and replaced with 85 μL of fresh cell culture media. The basal plate was removed from the incubator and placed into a cell culture hood, while the apical section of the plate was returned to the basal plate and placed into the incubator.
(§2) Cells were fed one or two days prior to assay. A fresh basal plate was prepared by adding 200 μL of cell media to all wells and placing the plate in an incubator. The plate was then transferred from the incubator to the cell culture hood, where the apical compartment was lifted and placed onto an empty basal plate. 85 μL of media was removed from the apical wells and replaced with 85 μL of fresh media. The apical compartment of the plate was transferred to a basal plate and returned to the incubator.
(§3) On the day of the assay, 1 mL of 500-fold diluted compound solution was prepared in transport buffer. 62.5 μl of the prepared solution was used for the apical compartment, while 130 μl was used in the basal compartment. TEER measurements of the plate were taken. The dilutions were incubated for 15 minutes at 37° C. Basal assay plates were prepared by filling A→B wells of a 96-well sterile plate with 250 μl of transport buffer or B→A wells with 130 μl of diluted compound/control and 130 μl of HBSS and mixing 6-10 times with a multichannel pipette. 10 μl of samples were then collected form the basal compartments of the B→A wells for TO into the Quench Plates (shallow polypropylene plate, leaving 250 μl in each well). The basal assay plates were then placed into the incubator until use. The Caco-2 plate was placed in the hood and the apical section was lifted and placed onto an empty basal plate. 85 μl of the Caco-2 media was removed from the apical compartments containing 115 μl of cell culture media and replaced with 85 μl of fresh transport media. This was repeated twice for a total of 3 washes. 52.5 μl of buffer was then removed from the apical wells of the Caco-2 ready plates (leaving 62.5 μl buffer in the wells) and replaced with 62.5 of the diluted compound or control for the A→B wells or 52.5 μl of fresh transport buffer for the B→A wells. The total volume in the apical wells was assumed to be 125 μl for A→B and 115 μl for B→A. The apical wells were gently mixed 2-3 times with a multichannel pipette set to 50 μl and 10 μl of sample was collected from the apical compartments of A→B wells for TO into the TO Quench plates (shallow polypropylene plate). The total volume in all apical wells was 115 μl. The basal plate was removed from the incubator and transferred to the apical section of the basal plate and returned to the incubator. The TO samples were then diluted with 40 μl of transport buffer and 100 μl of quench solution was added. The cells were then kept cold. At T 2 hrs, 10 μl of sample was collected from all apical compartments and B→A basal compartments. 50 μl of sample was collected from the A→B compartments. The collected 10 μl of sample was then diluted with 40 μl of transport buffer. 100 μl of quench solution was then added to all T 2 hrs samples. After mixing, 50 μl of all TO and T 2 hrs samples were transferred to sample plates and diluted with 100 μl MilliQ water for bioanalysis. Final TEER measurements were taken after the completion of the assay.

Caco-2 cells = experiment: Caco-2 permeability; type: in vitro ADME
Procedure: as §1, §2, §3

IL-6 induced pSTAT3 = IL-6 induced pSTAT3 assay in TF-1 cells; type: cell-based; conditions: Homo sapiens, read-out: Cellular selectivity (IL-6/pSTAT3)
Procedure: The following example describes the IL-6 induced pSTAT3 assay used to determine the cellular selectivity (IL-6/pSTAT3) of the TYK2 inhibitors.
TF-1 (ATCC®, CRL-2003™) cells were cultured in RPMI 1640 Medium, with GlutaMAX™ Supplement, HEPES for Cell Culture (Life Technologies, 72400047), 10% Fetal Bovine Serum (Life Technologies, 26400044), 2 ng/mL human recombinant GM-CSF (Life Technologies, PHC2013), 1 mM Sodium pyruvate (Life Technologies, 11360039), 1% MEM NEAA (Life Technologies, 11140-035), 1% Penicillin/Streptomycin (Life Technologies, 15140-122).
TF-1 (70×10^6) cells were starved overnight in T150 flasks (Opti-MEM™ I Reduced Serum Medium, no phenol red (Life Technologies, 11058-021), 1 mM Na pyruvate (Life Technologies, 11360039), 1% MEM NEAA (Life Technologies, 11140-035), and 1% Penicillin/Streptomycin (Life Technologies, 15140-122)) then seeded into 96-well TPP plates (150 000 cell/well) and incubated with test compounds (Final Concentration [nM]10000-0.05) for 30 minutes at 37° C. […] Stimulation was terminated by addition of lysis buffer (MSD K150SVD) and pSTAT3 detection was measured with Phospho-STAT3 (Tyr705) Kit MSD K150SVD)) according to manufacturer's instruction. Briefly, cell lysates were added to pre-blocked plates, sealed, and shake for 1 hour at room temperature. Plates were then washed and incubated with detection antibody for 1 hour at room temperature. After washing, Read Buffer was added, and plates were read on MSD instrument (Model 1300 MSD Quickplex SQ120).

**Q.** Which logD at 1 h [1] does the source give for `C[C@@H](c1ccc(Nc2cc(Nc3ncc(F)cc3S(C)(=O)=O)ncn2)nc1)N1CC2(COC2)C1` [Compound 2, (S)—N^4-(5-(1-(2-oxa-6-azaspiro[3.3]heptan-6-yl)ethyl)pyridin-2-yl)-N^6-(5-fluoro-3-(methylsulfonyl)pyridin-2-yl)pyrimidine-4,6-diamine] here?
**A.** ~1.6

**Q.** What about the Papp A→B at 2 h (Caco-2 permeability) of the same molecule?
**A.** ~7.2 ×10⁻⁶ cm/s

**Q.** What about the efflux ratio at 2 h (Caco-2 permeability) of the same molecule?
**A.** 2.2

**Q.** And the “Caco-2 Papp, A-B” value (Caco-2 cells)?
**A.** 7.51 ×10⁻⁶ cm/s

**Q.** And the IC50 (IL-6 induced pSTAT3)?
**A.** > 10 µM

**Q.** Which results are given for `C[C@@H](c1ccc(Nc2cc(Nc3ncccc3S(C)(=O)=O)ncn2)nc1)N1CC2(COC2)C1` [Compound 1, (S)—N^4-(5-(1-(2-oxa-6-azaspiro[3.3]heptan-6-yl)ethyl)pyridin-2-yl)-N^6-(3-(methylsulfonyl)pyridin-2-yl)pyrimidine-4,6-diamine]?
**A.** LogD ([1]; octanol / potassium phosphate buffer pH 7.4): 1.33; logD at 1 h [1]: ~1.3; Papp A→B at 2 h (Caco-2 permeability): ~6.02 ×10⁻⁶ cm/s; efflux ratio at 2 h (Caco-2 permeability): 1.38; Caco-2 Papp, A-B (Caco-2 cells): 6.02 ×10⁻⁶ cm/s; IC50 (IL-6 induced pSTAT3): > 10 µM
